Values of other authors as cited in publication PMC3969558 (Molecular Biology and Evolution, 2013).
No end group written: not given here.

What was measured:
[1] = tested on: steroidal receptors (nuclear receptors similar to the sex steroid receptors); conditions: ref Paris et al. 2008; Katsu et al. 2010
[2] = tested on: amphioxus GnRHR3; conditions: ref Tello and Sherwood 2009

Molecule	binding to amphioxus steroidal receptor [1]	activation of GnRHR3 (earlier study) [2]
C[C@]12CC[C@@H]3c4ccc(O)cc4CC[C@H]3[C@@H]1CC[C@@H]2O [estradiol]	has been shown to bind one of the steroidal receptors	
vertebrate GnRH2: vertebrate GnRH2, present throughout the vertebrates, 10 amino acids (QHWSHGWYPG; ends and bridges not checked; UniProt O43555 24-33, looked up)		activated amphioxus GnRHR3 within the vertebrate physiological range
